Measured values as given in ChEMBL document CHEMBL1201862, “PubChem BioAssay data set” (2004).
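These data come from cells grown in 96-well plates and exposed to compound for 48 hours at five concentrations. GI50 marks 50% less growth.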 Activity calls are given as the source filed them. No stated cut-off is given here; in the data, active = GI50 up to about 1.1 µM and inactive = higher.

Tests used:
Assay in all cases: growth of human tumour cells (NCI), 48 h
NCI-H226 = tested on: NCI-H226
TK-10 = tested on: TK-10
PC-3 = tested on: PC-3
SF-268 = tested on: SF-268
SK-MEL-5 = tested on: SK-MEL-5
A498 = tested on: A498
IGROV-1 = tested on: IGROV-1
CCRF-CEM = tested on: CCRF-CEM
T47D = tested on: T47D
KM12 = tested on: KM12
MDA-MB-435 = tested on: MDA-MB-435
SF-539 = tested on: SF-539
RPMI-8226 = tested on: RPMI-8226
UO-31 = tested on: UO-31
NCI/ADR-RES = tested on: NCI/ADR-RES
MOLT-4 = tested on: MOLT-4
SF-295 = tested on: SF-295
Hs-578T = tested on: Hs-578T

Measured: GI50

Brc1ccc2c(-c3csc(-c4c[nH]c5ccccc45)n3)c[nH]c2c1
inactive: NCI-H226 14.5 µM | TK-10 12.4 µM | PC-3 15.6 µM | SF-268 18.3 µM | SK-MEL-5 15.3 µM | A498 17 µM | IGROV-1 13 µM | CCRF-CEM 14.7 µM | T47D 24.8 µM | KM12 14.2 µM | MDA-MB-435 14.9 µM | SF-539 16 µM | RPMI-8226 19.4 µM | UO-31 14 µM | NCI/ADR-RES 16.8 µM

COC(=O)CSc1nnc(-c2ccc(O)c([N+](=O)[O-])c2)[nH]1
inactive: NCI-H226 > 100 µM | TK-10 > 100 µM | SF-268 > 100 µM | SK-MEL-5 > 100 µM | A498 > 100 µM | MOLT-4 > 100 µM | IGROV-1 > 100 µM | CCRF-CEM > 100 µM | SF-539 > 100 µM | SF-295 > 100 µM | RPMI-8226 > 100 µM | UO-31 > 100 µM

O=C(NC12CC3CC(CC(C3)C1)C2)C(=O)c1c[nH]c2ccc(Br)cc12
inactive: NCI-H226 20.2 µM | TK-10 28.8 µM | SF-268 9.59 µM | SK-MEL-5 41 µM | MOLT-4 5.41 µM | IGROV-1 45.5 µM | CCRF-CEM 3.86 µM | KM12 7.08 µM | SF-539 19 µM | SF-295 4.18 µM | RPMI-8226 6.67 µM | UO-31 26.2 µM

O=C(NCCCN(CCCCN(CCCNC(=O)C(F)(F)F)Cc1ccc2ccccc2c1)Cc1ccc2ccccc2c1)C(F)(F)F
inactive: NCI-H226 > 100 µM | TK-10 > 100 µM | PC-3 6.95 µM | SF-268 > 100 µM | SK-MEL-5 1.75 µM | A498 > 100 µM | MOLT-4 5.28 µM | IGROV-1 7.87 µM | CCRF-CEM > 78.2 µM | T47D 5.05 µM | KM12 5.83 µM | MDA-MB-435 1.9 µM | SF-539 4.62 µM | SF-295 > 28.6 µM | RPMI-8226 2.81 µM | UO-31 2.33 µM | NCI/ADR-RES 73.5 µM

CCOC(=O)/C(=C\n1c(=O)sc2ccccc21)C(=O)c1ccccc1
inactive: NCI-H226 > 100 µM | PC-3 > 100 µM | SF-268 > 100 µM | SK-MEL-5 54.2 µM | A498 > 100 µM | MOLT-4 > 100 µM | IGROV-1 20 µM | Hs-578T 39.6 µM | CCRF-CEM > 100 µM | T47D 22.4 µM | KM12 > 100 µM | MDA-MB-435 > 100 µM | SF-539 > 100 µM | SF-295 88.1 µM | RPMI-8226 39.6 µM | UO-31 26 µM | NCI/ADR-RES > 100 µM

[O-][S+](CC1(O)CCCCC1)c1ccccc1 (configuration not stated)
active: RPMI-8226 < 0.01 µM
inactive: NCI-H226 > 100 µM | TK-10 > 100 µM | PC-3 > 100 µM | SF-268 > 100 µM | SK-MEL-5 > 100 µM | MOLT-4 > 100 µM | IGROV-1 > 100 µM | Hs-578T > 100 µM | CCRF-CEM > 100 µM | T47D > 100 µM | KM12 > 100 µM | SF-295 > 100 µM | UO-31 > 100 µM | NCI/ADR-RES > 100 µM

N#C[C@H]1C(=O)C(c2nc3ccccc3[nH]2)S[C@H]1c1ccccc1 (some centres not stated)
inactive: NCI-H226 85.3 µM | TK-10 95.9 µM | SK-MEL-5 25.2 µM | A498 22.1 µM | MOLT-4 33.7 µM | IGROV-1 26.9 µM | Hs-578T 45.2 µM | CCRF-CEM 38.4 µM | KM12 44.2 µM | MDA-MB-435 35 µM | SF-295 25.2 µM | RPMI-8226 25.5 µM | UO-31 26.9 µM | NCI/ADR-RES 30.9 µM
